The structures appear in SMILES notation.

This assay has as its system Tunicamycin induced ISR (ATF4 signal ratio between nucleus and cytoplasm) in wild-type HEK293 cells. As to the kind of experiment: HEK-ATF4 High Content Imaging assay. The format is cell-based. The note with it: Homo sapiens, prevention of Tunicamycin induced ISR, 6 h incubation, ATF4 immunofluorescence nucleus/cytoplasm ratio. How it is done:
HEK-ATF4 High Content Imaging Assay
Example compounds were tested in the HEK-ATF4 High Content Imaging assay to assess their pharmacological potency to prevent Tunicamycin induced ISR. Wild-type HEK293 cells were plated in 384-well imaging assay plates at a density of 12,000 cells per well in growth medium (containing DMEM/F12, 10% FBS, 2 mM L-Glutamine, 100 U/mL Penicillin—100 μg/mL Streptomycin) and incubated at 37° C., 5% CO2. 24 h later, the medium was changed to 50 μL assay medium per well (DMEM/F12, 0.3% FBS, 2 mM L-Glutamine, 100 U/mL Penicillin—100 μg/mL Streptomycin). Example compounds were serially diluted in DMSO, spotted into intermediate plates and prediluted with assay medium containing 3.3 μM Tunicamycin to give an 11-fold excess of final assay concentration. In addition to the example compound testing area, the plates also contained multiples of control wells for assay normalization purposes, wells containing Tunicamycin but no example compounds (High control), as well as wells containing neither example compound nor Tunicamycin (Low control). The assay was started by transferring 5 μL from the intermediate plate into the assay plates, followed by incubation for 6 h at 37° C., 5% CO2. Subsequently, cells were fixed (4% PFA in PBS, 20 min at r.t.) and submitted to indirect ATF4 immunofluorescence staining (primary antibody rabbit anti ATF4, clone D4B8, Cell Signaling Technologies; secondary antibody Alexa Fluor 488 goat anti-rabbit IgG (H+L), Thermofisher Scientific). Nuclei were stained using Hoechst dye (Thermofisher Scientific), and plates were imaged on an Opera Phenix High Content imaging platform equipped with 405 nm and 488 nm excitation. Finally, images were analyzed using script based algorithms. The main readout HEK-ATF4 monitored the ATF4 signal ratio between nucleus and cytoplasm. Tunicamycin induced an increase in the overall ATF4 ratio signal, which was prevented by ISR modulating example compounds. In addition, HEK-CellCount readout was derived from counting the number of stained nuclei corresponding to healthy cells. This readout served as an internal toxicity control.
Regarding `O=C(N[C@H]1CC[C@H](c2nnc(OCCOC(F)(F)F)o2)NC1)c1ccc2cc(C(F)(F)F)ccc2n1` [Example 2, N-[(3S,6R)-6-{5-[2-(trifluoromethoxy)ethoxy]-1,3,4-oxadiazol-2-yl}piperidin-3-yl]-6-(trifluoromethyl)quinoline-2-carboxamide], the half-maximal inhibitory concentration (IC50) (commonly the point on the concentration scale where inhibition reaches its midpoint) fell in the range of 1 to 500 nM. As to `O=C(N[C@H]1CC[C@H](c2nnc(OCCOC(F)(F)F)o2)NC1)c1cnc2cc(Cl)ccc2c1` [Example 3, 7-chloro-N-[(3S,6R)-6-{5-[2-(trifluoromethoxy)ethoxy]-1,3,4-oxadiazol-2-yl}piperidin-3-yl]quinoline-3-carboxamide], the IC50 was 1 to 500 nM. `O=C(N[C@H]1CC[C@H](c2nnc(OCCOC(F)(F)F)o2)NC1)C1=Cc2ccc(Cl)cc2OC1` [Example 4, 7-chloro-N-[(3S,6R)-6-{5-[2-(trifluoromethoxy)ethoxy]-1,3,4-oxadiazol-2-yl}piperidin-3-yl]-2H-chromene-3-carboxamide]: the IC50 lay within 1 to 500 nM. `O=C(N[C@H]1CC[C@H](c2nnc(OCCOC(F)(F)F)o2)NC1)c1cc2ccc(Cl)cc2cn1` [Example 5, 7-chloro-N-[(3S,6R)-6-{5-[2-(trifluoromethoxy)ethoxy]-1,3,4-oxadiazol-2-yl}piperidin-3-yl]isoquinoline-3-carboxamide]: the IC50 is 500 to 2000 nM. With `O=C(N[C@H]1CC[C@H](c2nnc(OCCOC(F)(F)F)o2)NC1)c1ncc2cc(Cl)ccc2n1` [Example 6, 6-chloro-N-[(3S,6R)-6-{5-[2-(trifluoromethoxy)ethoxy]-1,3,4-oxadiazol-2-yl}piperidin-3-yl]quinazoline-2-carboxamide] the figure was 1 to 500 nM. Consider `O=C(N[C@H]1CC[C@H](c2nnc(OCCOC(F)(F)F)o2)NC1)c1cnc2ccc(Cl)cc2c1` [Example 8, 6-chloro-N-[(3S,6R)-6-{5-[2-(trifluoromethoxy)ethoxy]-1,3,4-oxadiazol-2-yl}piperidin-3-yl]quinoline-3-carboxamide], for which the IC50 was in the range of 1 to 500 nM. The figure for `O=C(N[C@H]1CC[C@H](c2nnc(OCCOC(F)(F)F)o2)NC1)c1cc2cc(Cl)ccc2o1` [Example 9, 5-chloro-N-[(3S,6R)-6-{5-[2-(trifluoromethoxy)ethoxy]-1,3,4-oxadiazol-2-yl}piperidin-3-yl]-1-benzofuran-2-carboxamide] is 1 to 500 nM. Turning to `O=C(N[C@H]1CC[C@H](c2nnc(OCCOC(F)(F)F)o2)NC1)c1ccc2cc(Cl)cnc2c1` [Example 10, 3-chloro-N-[(3S,6R)-6-{5-[2-(trifluoromethoxy)ethoxy]-1,3,4-oxadiazol-2-yl}piperidin-3-yl]quinoline-7-carboxamide], the IC50 was in the range of 500 to 2000 nM. Regarding `O=C(N[C@H]1CC[C@H](c2nnc(OCCOC(F)(F)F)o2)NC1)c1cnc2cc(Cl)c(F)cc2c1` [Example 11, 7-chloro-6-fluoro-N-[(3S,6R)-6-{5-[2-(trifluoromethoxy)ethoxy]-1,3,4-oxadiazol-2-yl}piperidin-3-yl]quinoline-3-carboxamide], the IC50 was in the range of 1 to 500 nM. With `O=C(N[C@H]1CC[C@H](c2nnc(OCCOC(F)(F)F)o2)NC1)c1cc2cc(Cl)ccn2n1` [Example 12, 5-chloro-N-[(3S,6R)-6-{5-[2-(trifluoromethoxy)ethoxy]-1,3,4-oxadiazol-2-yl}piperidin-3-yl]pyrazolo[1,5-a]pyridine-2-carboxamide] the figure was 500 to 2000 nM; with `O=C(N[C@H]1CC[C@H](c2nnc(OCCOC(F)(F)F)o2)NC1)c1ccc(OCC(F)(F)F)nc1` [Example 13, 6-(2,2,2-trifluoroethoxy)-N-[(3S,6R)-6-{5-[2-(trifluoromethoxy)ethoxy]-1,3,4-oxadiazol-2-yl}piperidin-3-yl]pyridine-3-carboxamide], 2000 to 15000 nM; with `O=C(N[C@H]1CC[C@H](c2nnc(OCCOC(F)(F)F)o2)NC1)c1ccc2nc(C(F)(F)F)ccc2c1` [Example 14, N-[(3S,6R)-6-{5-[2-(trifluoromethoxy)ethoxy]-1,3,4-oxadiazol-2-yl}piperidin-3-yl]-2-(trifluoromethyl)quinoline-6-carboxamide], 2000 to 15000 nM. The figure for `O=C(N[C@H]1CC[C@H](c2nnc(OCCOC(F)(F)F)o2)NC1)c1cn2cc(Cl)cc2cn1` [Example 15, 7-chloro-N-[(3S,6R)-6-{5-[2-(trifluoromethoxy)ethoxy]-1,3,4-oxadiazol-2-yl}piperidin-3-yl]pyrrolo[1,2-a]pyrazine-3-carboxamide] is 2000 to 15000 nM. With `O=C(N[C@H]1CC[C@H](c2nnc(OCCOC(F)(F)F)o2)NC1)c1ccc(OC(F)(F)F)nc1` [Example 16, 6-(trifluoromethoxy)-N-[(3S,6R)-6-{5-[2-(trifluoromethoxy)ethoxy]-1,3,4-oxadiazol-2-yl}piperidin-3-yl]pyridine-3-carboxamide] the figure was 500 to 2000 nM; with `O=C(N[C@H]1CC[C@H](c2nnc(OCCOC(F)(F)F)o2)NC1)c1ccc(Cl)c(Cl)c1` [Example 17, 3,4-dichloro-N-[(3S,6R)-6-{5-[2-(trifluoromethoxy)ethoxy]-1,3,4-oxadiazol-2-yl}piperidin-3-yl]benzamide], 500 to 2000 nM; with `O=C(N[C@H]1CC[C@H](c2nnc(OCCOC(F)(F)F)o2)NC1)c1ccc(Cl)cc1` [Example 18, 4-chloro-N-[(3S,6R)-6-{5-[2-(trifluoromethoxy)ethoxy]-1,3,4-oxadiazol-2-yl}piperidin-3-yl]benzamide], 2000 to 15000 nM. For the compound `O=C(N[C@H]1CC[C@H](c2nnc(OCCOC(F)(F)F)o2)NC1)c1cnc2c(F)c(Cl)ccc2c1` [Example 19, 7-chloro-8-fluoro-N-[(3S,6R)-6-{5-[2-(trifluoromethoxy)ethoxy]-1,3,4-oxadiazol-2-yl}piperidin-3-yl]quinoline-3-carboxamide], the IC50 was 1 to 500 nM. The figure for `O=C(N[C@H]1CC[C@H](c2nnc(OCCOC(F)(F)F)o2)NC1)c1cc2cc(Cl)ccn2c1` [Example 20, 7-chloro-N-[(3S,6R)-6-{5-[2-(trifluoromethoxy)ethoxy]-1,3,4-oxadiazol-2-yl}piperidin-3-yl]indolizine-2-carboxamide] is 1 to 500 nM; for `O=C(N[C@H]1CC[C@H](c2nnc(OCCOC(F)(F)F)o2)NC1)c1cc2ccc(Cl)cn2c1` [Example 21, 6-chloro-N-[(3S,6R)-6-{5-[2-(trifluoromethoxy)ethoxy]-1,3,4-oxadiazol-2-yl}piperidin-3-yl]indolizine-2-carboxamide] it is 1 to 500 nM; for `Cn1c(C(=O)N[C@H]2CC[C@H](c3nnc(OCCOC(F)(F)F)o3)NC2)cc2cc(C(F)(F)F)ccc21` [Example 22, 1-methyl-N-[(3S,6R)-6-{5-[2-(trifluoromethoxy)ethoxy]-1,3,4-oxadiazol-2-yl}piperidin-3-yl]-5-(trifluoromethyl)-1H-indole-2-carboxamide] it is 500 to 2000 nM. With `O=C(N[C@H]1CC[C@H](c2nnc(OCCOC(F)(F)F)o2)NC1)c1cccc(Cl)c1` [Example 23, 3-chloro-N-[(3S,6R)-6-{5-[2-(trifluoromethoxy)ethoxy]-1,3,4-oxadiazol-2-yl}piperidin-3-yl]benzamide] the figure was 2000 to 15000 nM; with `Cc1cc(C)cc(C(=O)N[C@H]2CC[C@H](c3nnc(OCCOC(F)(F)F)o3)NC2)c1` [Example 24, 3,5-dimethyl-N-[(3S,6R)-6-{5-[2-(trifluoromethoxy)ethoxy]-1,3,4-oxadiazol-2-yl}piperidin-3-yl]benzamide], 2000 to 15000 nM.

In the case of `Cc1ccc(C(=O)N[C@H]2CC[C@H](c3nnc(OCCOC(F)(F)F)o3)NC2)cc1C` [Example 25, 3,4-dimethyl-N-[(3S,6R)-6-{5-[2-(trifluoromethoxy)ethoxy]-1,3,4-oxadiazol-2-yl}piperidin-3-yl]benzamide], the IC50 lay in the range of 2000 to 15000 nM.

For the compound `Cc1cc(C(=O)N[C@H]2CC[C@H](c3nnc(OCCOC(F)(F)F)o3)NC2)sc1C` [Example 26, 4,5-dimethyl-N-[(3S,6R)-6-{5-[2-(trifluoromethoxy)ethoxy]-1,3,4-oxadiazol-2-yl}piperidin-3-yl]thiophene-2-carboxamide], the IC50 lay in the range of 2000 to 15000 nM. On to `Cc1ccc(C(=O)N[C@H]2CC[C@H](c3nnc(OCCOC(F)(F)F)o3)NC2)cc1` [Example 27, 4-methyl-N-[(3S,6R)-6-{5-[2-(trifluoromethoxy)ethoxy]-1,3,4-oxadiazol-2-yl}piperidin-3-yl]benzamide], for which the IC50 lay in the range of 2000 to 15000 nM. Regarding `O=C(N[C@H]1CC[C@H](c2nnc(OCCOC(F)(F)F)o2)NC1)c1ccc(OC(F)(F)F)cc1` [Example 29, 4-(trifluoromethoxy)-N-[(3S,6R)-6-{5-[2-(trifluoromethoxy)ethoxy]-1,3,4-oxadiazol-2-yl}piperidin-3-yl]benzamide], the IC50 fell in the range of 1 to 500 nM. As for `O=C(N[C@H]1CC[C@H](c2nnc(OCCOC(F)(F)F)o2)NC1)c1ccc2c(c1)OC(F)(F)O2` [Example 30, 2,2-difluoro-N-[(3S,6R)-6-{5-[2-(trifluoromethoxy)ethoxy]-1,3,4-oxadiazol-2-yl}piperidin-3-yl]-2H-1,3-benzodioxole-5-carboxamide], the IC50 lay in the range of 500 to 2000 nM.

(Values after patent US20230391763A1, “MODULATORS OF THE INTEGRATED STRESS RESPONSE PATHWAY” (Evotec International GmbH, priority 2020, published 2023).)
